Measurements from patent US6649646B2, “Insecticidal and miticidal compositions” (priority 1996, dated 2003).

system: Kanzawa spider mite (Tetranychus kanzawai kishida) which had acquired a strong resistance to chlorfenapyr; assay: Miticidal effect against female imagines of chlorfenapyr-resistant Kanzawa spider mite, leaf disk spray test; format: in vivo; details: LC50 resistant strain relative to susceptible strain
Text: For a T value equal to 100, an additive action is indicated.

| Compound | resistance to chlorfenapyr of the resistant strain versus susceptible strain [fold] |
| --- | --- |
| CCOCn1c(-c2ccc(Cl)cc2)c(C#N)c(Br)c1C(F)(F)F [Chlorfenapyr, 4-Bromo-2-(4-chlorophenyl)-1-(ethoxymethyl)-5-(trifluoromethyl)pyrrole-3-carbonitrile] | ~300 |

same assay, conditions: in vivo

| Compound | LC50 [ppm] |
| --- | --- |
| CCCSP(=S)(OCC)Oc1ccc(Cl)cc1Cl (stereo not drawn) [Prothiophos, O-2,4-Dichlorophenyl-O-ethyl-S-propylphosphorodithioate] | 260 |

same assay, conditions: single test compound; female imago, chlorfenapyr-resistant strain; mortality two days after spray treatment, 25±1° C.; probit analysis

| Compound | LC50 [ppm] |
| --- | --- |
| CCOP(=S)(Oc1ccc([N+](=O)[O-])cc1)c1ccccc1 (stereo not drawn) [EPN, Ethyl p-nitrophenylthionobenzenephosphonate] | 3100 |
| CCCSP(=S)(OCC)Oc1ccc(SC)cc1 (stereo not drawn) [Sulprofos, O-Ethyl-O-4-methylthiophenyl-S-propyl-phosphorodithioate] | 320 |
| CCOP(=S)(OCC)Oc1nc(Cl)c(Cl)cc1Cl [Chlorpyrifos, O,O-Diethyl-O-3,5,6-trichloro-2-pyridylphosphorothioate] | 3200 |
| CCOC(=O)C(SP(=S)(OC)OC)c1ccccc1 (stereo not drawn) [PAP, Ethyl dimethyldithiophosphorylphenylacetate] | 2000 |
| CCOC(=O)CC(SP(=S)(OC)OC)C(=O)OCC (stereo not drawn) [Malathon, Dimethyldicarbethoxyethyldithiophosphate] | 3400 |
| CCOP(=S)(OCC)Oc1ccc(=O)n(-c2ccccc2)n1 [Pyridaphenthion, O,O-Diethyl-O-(3-oxo-2-phenyl-2H-pyridazin-6-yl) phosphorothioate] | 1900 |
| CCOP(=S)(OCC)SCSP(=S)(OCC)OCC [Ethion, O,O,O′,O′-Tetraethyl-S,S′-methylenebisphosphorodithioate] | 3100 |
| COP(=S)(OC)Oc1nc(Cl)c(Cl)cc1Cl [Chlorpyrifosmethyl, O,O-Dimethyl-O-3,5,6-trichloro-2-pyridylphosphorothioate] | 790 |
| COP(=S)(OC)Oc1ccc(C#N)cc1 [CYAP, O,O-Dimethyl-O-p-cyanophenylthiophosphate] | 3200 |
| CCOP(=S)(OCC)Oc1cc(C)nc(C(C)C)n1 [Diazinon, (2-isopropyl-4-methylpyrimidyl-6)-diethylthiophosphate] | 3200 |
| COP(=S)(OC)Oc1ccc(SC)c(C)c1 [MPP, O,O-Dimethyl-O-[3-methyl-4-(methylthio)phenyl]-thiophosphate] | 1100 |
| CCOP(=S)(OCC)SCn1c(=O)oc2cc(Cl)ccc21 [Phosalone, 3-Diethoxyphosphorylthiomethyl-6-chlorobenzoxazolone] | 350 |
| CC(C)OP(=O)(OC(C)C)SCc1ccccc1 [IBP, O,O-Diisopropyl-S-benzylthiophosphate] | 1300 |
| CCOCn1c(-c2ccc(Cl)cc2)c(C#N)c(Br)c1C(F)(F)F [Chlorfenapyr, 4-Bromo-2-(4-chlorophenyl)-1-(ethoxymethyl)-5-(trifluoromethyl)pyrrole-3-carbonitrile] | 1500 |
| COP(=S)(OC)Oc1ccc([N+](=O)[O-])c(C)c1 [MEP, O,O-Dimethyl-O-(3-methyl-4-nitrophenyl)thiophosphate] | 3200 |

system: susceptible strain of spider mite; assay: LC50 against a susceptible strain of spider mite; format: in vivo; details: not given

| Compound | LC50 |
| --- | --- |
| CCOCn1c(-c2ccc(Cl)cc2)c(C#N)c(Br)c1C(F)(F)F [Chlorfenapyr, 4-Bromo-2-(4-chlorophenyl)-1-(ethoxymethyl)-5-(trifluoromethyl)pyrrole-3-carbonitrile] | about 5 ppm |
